Test results reported in patent US9763957B2, “Autotaxin inhibitors” (Novartis AG, priority 2013, dated 2017).

Biological target: Recombinant human ATX (Homo sapiens (Human), UniProt Q13822)
Assay: ATX inhibition assay (choline release, Amplex Red fluorescence)
Assay type: biochemical
Settings: ATX 10 nM, LPC 18:1 10 μM, 37° C., 20 min pre-incubation; mean of n≧2
Method in brief: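 Activity was taken from the slope of resorufin fluorescence (530/590 nm, read every 2 min for 40 min at 37 °C) produced by choline liberated from 10 μM oleoyl LPC.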

Cc1nnn(Cc2cc(OC(F)(F)F)ccc2/C=C/C(=O)N2CCC(Cc3nnc(C)o3)CC2)n1 [Example 56, (E)-1-(4-((5-Methyl-1,3,4-oxadiazol-2-yl)methyl)piperidin-1-yl)-3-(2-((5-methyl-2H-tetrazol-2-yl)methyl)-4-(trifluoromethoxy)phenyl)prop-2-en-1-one] showed an IC50 of 12 nM.
Cc1nnn(Cc2cc(C(F)(F)F)ccc2/C=C/C(=O)N2CCC(c3nnc(C)o3)CC2)n1 [Example 57, (E)-1-(4-(5-Methyl-1,3,4-oxadiazol-2-yl)piperidin-1-yl)-3-(2-((5-methyl-2H-tetrazol-2-yl)methyl)-4-(trifluoromethyl)phenyl)prop-2-en-1-one] showed an IC50 of 8 nM.
In the case of Cc1nnn(Cc2cc(OC(F)F)ccc2/C=C/C(=O)N2CCC(Cc3nnc(C)o3)CC2)n1 [Example 58, (E)-3-(4-(Difluoromethoxy)-2-((5-methyl-2H-tetrazol-2-yl)methyl)phenyl)-1-(4-((5-methyl-1,3,4-oxadiazol-2-yl)methyl)piperidin-1-yl)prop-2-en-1-one], the IC50 is reported as 53 nM.
Cc1nnn(Cc2cc(C(F)F)ccc2/C=C/C(=O)N2CCC(Cc3nnc(C)o3)CC2)n1 [Example 59, (E)-3-(4-(Difluoromethyl)-2-((5-methyl-2H-tetrazol-2-yl)methyl)phenyl)-1-(4-((5-methyl-1,3,4-oxadiazol-2-yl)methyl)piperidin-1-yl)prop-2-en-1-one] showed an IC50 of 21 nM.
Cc1noc(CC2CCN(C(=O)/C=C/c3ccc(C(F)(F)F)cc3Cn3nnc(C)n3)CC2)n1 [Example 60, (E)-1-(4-((3-Methyl-1,2,4-oxadiazol-5-yl)methyl)piperidin-1-yl)-3-(2-((5-methyl-2H-tetrazol-2-yl)methyl)-4-(trifluoromethyl)phenyl)prop-2-en-1-one] was tested, and the IC50 was 8.8 nM.
Work on Cc1nnn(Cc2cc(Cl)ccc2/C=C/C(=O)N2CC3CCC2CN3Cc2coc(C)n2)n1 (centres unmarked) [Example 61, (E)-3-(4-Chloro-2-((5-methyl-2H-tetrazol-2-yl)methyl)phenyl)-1-(5-((2-methyloxazol-4-yl)methyl)-2,5-diazabicyclo[2.2.2]octan-2-yl)prop-2-en-1-one] yielded an IC50 of 45 nM.
In the case of Cc1nnn(Cc2cc(Cl)ccc2/C=C/C(=O)N2CCN(Cc3coc(C)n3)C[C@H]2C)n1 [Example 62, (R,E)-3-(4-Chloro-2-((5-methyl-2H-tetrazol-2-yl)methyl)phenyl)-1-(2-methyl-4-((2-methyloxazol-4-yl)methyl)piperazin-1-yl)prop-2-en-1-one], the IC50 is reported as 4.2 nM.
For Cc1csc(C(O)C2CCN(C(=O)/C=C/c3ccc(Cl)cc3Cn3nnc(C)n3)CC2)n1 (centres unmarked) [Example 63, (E)-3-(4-Chloro-2-((5-methyl-2H-tetrazol-2-yl)methyl)phenyl)-1-(4-(hydroxy(4-methylthiazol-2-yl)methyl)piperidin-1-yl)prop-2-en-1-one], the IC50 was 5.5 nM.
Compound Cc1nnn(Cc2cc(Cl)ccc2/C=C/C(=O)N2CCC(c3ccc(F)cc3)CC2)n1 [Example 64, (E)-3-(4-Chloro-2-((5-methyl-2H-tetrazol-2-yl)methyl)phenyl)-1-(4-(4-fluorophenyl)piperidin-1-yl)prop-2-en-1-one] has an IC50 of 31 nM.
Work on Cc1nnn(Cc2cc(C(F)(F)F)ccc2/C=C/C(=O)N2CCN(CC(=O)OC(C)(C)C)C[C@H]2C)n1 [Example 65, (R,E)-tert-Butyl 2-(3-methyl-4-(3-(2-((5-methyl-2H-tetrazol-2-yl)methyl)-4-(trifluoromethyl)phenyl)acryloyl)piperazin-1-yl)acetate] yielded an IC50 of 5.5 nM.
Work on COC(=O)C1CCN(C(=O)/C=C/c2ccc(C(F)(F)F)cc2Cn2nnc(C)n2)CC1 [Example 67, (E)-Methyl 1-(3-(2-((5-methyl-2H-tetrazol-2-yl)methyl)-4-(trifluoromethyl)phenyl)acryloyl)piperidine-4-carboxylate] yielded an IC50 of 8.8 nM.
Compound Cc1nnn(Cc2cc(C(F)(F)F)ccc2/C=C/C(=O)N2CCN(C(=O)OC(C)(C)C)CC2)n1 [Example 68, (E)-tert-Butyl-4-(3-(2-((5-methyl-2H-tetrazol-2-yl)methyl)-4-(trifluoromethyl)phenyl)acryloyl)piperazine-1-carboxylate] has an IC50 of 4.5 nM.
Compound Cc1nnn(Cc2cc(C(F)(F)F)ccc2/C=C/C(=O)N2CCN(Cc3coc(C)n3)C[C@H]2C)n1 [Example 69, (R,E)-3-(2-((5-Methyl-2H-tetrazol-2-yl)methyl)-4-(trifluoromethyl)phenyl)-1-(2-methyl-4-((2-methyloxazol-4-yl)methyl)piperazin-1-yl)prop-2-en-1-one] has an IC50 of 2 nM.
Work on Cc1nnn(Cc2cc(C(F)(F)F)ccc2/C=C/C(=O)N2CCN(Cc3cnn(C)c3)C[C@H]2C)n1 [Example 70, (R,E)-3-(2-((5-Methyl-2H-tetrazol-2-yl)methyl)-4-(trifluoromethyl)phenyl)-1-(2-methyl-4-((1-methyl-1H-pyrazol-4-yl)methyl)piperazin-1-yl)prop-2-en-1-one] yielded an IC50 of 4.2 nM.
Cc1nnn(Cc2cc(C(F)(F)F)ccc2/C=C/C(=O)N2CCC(Cc3noc(C)n3)CC2)n1 [Example 71, (E)-1-(4-((5-Methyl-1,2,4-oxadiazol-3-yl)methyl)piperidin-1-yl)-3-(2-((5-methyl-2H-tetrazol-2-yl)methyl)-4-(trifluoromethyl)phenyl)prop-2-en-1-one] was tested, and the IC50 was 6 nM.
Cc1ccc(/C=C/C(=O)N2CCC(Cc3nnc(C)o3)CC2)c(Cn2nnc(C)n2)c1 [Example 72, (E)-1-(4-((5-Methyl-1,3,4-oxadiazol-2-yl)methyl)piperidin-1-yl)-3-(4-methyl-2-((5-methyl-2H-tetrazol-2-yl)methyl)phenyl)prop-2-en-1-one] showed an IC50 of 290 nM.
Cc1nnn(Cc2cc(Cl)ccc2/C=C/C(=O)N2CCN(Cc3cnn(C)c3)C[C@H]2C)n1 [Example 73, (R,E)-3-(4-Chloro-2-((5-methyl-2H-tetrazol-2-yl)methyl)phenyl)-1-(2-methyl-4-((1-methyl-1 H-pyrazol-4-yl)methyl)piperazin-1-yl)prop-2-en-1-one] gave an IC50 of 4.2 nM.
Cc1nnn(Cc2cc(C(F)(F)F)ccc2/C=C/C(=O)N2CCN(Cc3coc(C)n3)CC2)n1 [Example 74, (E)-3-(2-((5-Methyl-2H-tetrazol-2-yl)methyl)-4-(trifluoromethyl)phenyl)-1-(4-((2-methyloxazol-4-yl)methyl)piperazin-1-yl)prop-2-en-1-one] was tested, and the IC50 was 5.5 nM.
Cc1nnc(CC2CCN(C(=O)/C=C/c3ccc(Cl)cc3Cn3nccn3)CC2)o1 [Example 75, (E)-3-(2-((2H-1,2,3-Triazol-2-yl)methyl)-4-chlorophenyl)-1-(4-((5-methyl-1,3,4-oxadiazol-2-yl)methyl)piperidin-1-yl)prop-2-en-1-one] was tested, and the IC50 was 1440 nM.
Cc1noc(Cc2cc(Cl)ccc2/C=C/C(=O)N2CCN(Cc3coc(C)n3)CC2)n1 [Example 76, (E)-3-(4-Chloro-2-((3-methyl-1,2,4-oxadiazol-5-yl)methyl)phenyl)-1-(4-((2-methyloxazol-4-yl)methyl)piperazin-1-yl)prop-2-en-1-one] gave an IC50 of 73 nM.
Work on Cc1nnc(CC2CCN(C(=O)/C=C/c3ccc(Cl)cc3Cn3ncnn3)CC2)o1 [Example 77, (E)-3-(2-((2H-Tetrazol-2-yl)methyl)-4-chlorophenyl)-1-(4-((5-methyl-1,3,4-oxadiazol-2-yl)methyl)piperidin-1-yl)prop-2-en-1-one] yielded an IC50 of 1990 nM.
Work on Cc1nnn(Cc2c(F)cccc2/C=C/C(=O)N2CCC(Cc3nnc(C)o3)CC2)n1 [Example 78, (E)-3-(3-Fluoro-2-((5-methyl-2H-tetrazol-2-yl)methyl)phenyl)-1-(4-((5-methyl-1,3,4-oxadiazol-2-yl)methyl)piperidin-1-yl)prop-2-en-1-one] yielded an IC50 of 1460 nM.
Compound Cc1nnn(Cc2ccc(F)cc2/C=C/C(=O)N2CCC(Cc3nnc(C)o3)CC2)n1 [Example 79, (E)-3-(5-Fluoro-2-((5-methyl-2H-tetrazol-2-yl)methyl)phenyl)-1-(4-((5-methyl-1,3,4-oxadiazol-2-yl)methyl)piperidin-1-yl)prop-2-en-1-one] has an IC50 of 3140 nM.
Cc1cnn(Cc2cc(Cl)ccc2/C=C/C(=O)N2CCC(Cc3nnc(C)o3)CC2)n1 [Example 80, (E)-3-(4-Chloro-2-((4-methyl-2H-1,2,3-triazol-2-yl)methyl)phenyl)-1-(4-((5-methyl-1,3,4-oxadiazol-2-yl)methyl)piperidin-1-yl)prop-2-en-1-one] gave an IC50 of 454 nM.
Work on Cc1nnn(Cc2cc(C(F)(F)F)ccc2/C=C/C(=O)N2CCC(Cc3nnc(C)o3)CC2)n1 [Example 81, (E)-1-(4-((5-Methyl-1,3,4-oxadiazol-2-yl)methyl)piperidin-1-yl)-3-(2-((5-methyl-2H-tetrazol-2-yl)methyl)-4-(trifluoromethyl)phenyl)prop-2-en-1-one] yielded an IC50 of 13 nM.
In the case of Cc1nnn(Cc2cc(C#N)ccc2/C=C/C(=O)N2CCC(Cc3nnc(C)o3)CC2)n1 [Example 82, (E)-4-(3-(4-((5-Methyl-1,3,4-oxadiazol-2-yl)methyl)piperidin-1-yl)-3-oxoprop-1-en-1-yl)-3-((5-methyl-2H-tetrazol-2-yl)methyl)benzonitrile], the IC50 is reported as 785 nM.
For COc1ccc(/C=C/C(=O)N2CCC(Cc3nnc(C)o3)CC2)c(Cn2nnc(C)n2)c1 [Example 83, (E)-3-(4-Methoxy-2-((5-methyl-2H-tetrazol-2-yl)methyl)phenyl)-1-(4-((5-methyl-1,3,4-oxadiazol-2-yl)methyl)piperidin-1-yl)prop-2-en-1-one], the IC50 was 846 nM.
In the case of COCC(=O)N(C)C1CCN(C(=O)/C=C/c2ccc(C(F)(F)F)cc2Cn2nnc(C)n2)CC1 [Example 84, (E)-2-Methoxy-N-methyl-N-(1-(3-(2-((5-methyl-2H-tetrazol-2-yl)methyl)-4-(trifluoromethyl)phenyl)acryloyl)piperidin-4-yl)acetamide], the IC50 is reported as 8.1 nM.
Compound Cc1nnn(Cc2cc(Cl)ccc2/C=C/C(=O)N2CC(c3nnc(C)o3)C2)n1 [Example 85, (E)-3-(4-Chloro-2-((5-methyl-2H-tetrazol-2-yl)methyl)phenyl)-1-(3-(5-methyl-1,3,4-oxadiazol-2-yl)azetidin-1-yl)prop-2-en-1-one] has an IC50 of 289 nM.
